Test results taken from the supplement of paper PMC10331698.
± gives the standard deviation of the averaged measurements.

What was measured:
Assay in all cases: level (log10 ratio to DMSO vehicle control); higher = higher biomarker level / cell amount than vehicle control
[1] = compound: O=S(=O)(O)CCC(F)(F)C(F)(F)C(F)(F)C(F)(F)C(F)(F)C(F)(F)C(F)(F)C(F)(F)F [8:2 Fluorotelomer sulfonic acid] (in DMSO)
Method: (§1)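 BioMAP Diversity Plus panel of 12 human primary cell co-culture systems (3C, 4H, LPS, SAg, BT, BF4T, BE3C, CASM3C, HDF3CGF, KF3CT, MyoF, Mphg). Compounds were added 1 h before stimulation and left for 24 h (MyoF 48 h; BT 72 h for soluble read-outs or 6 d for IgG). Biomarkers were read by ELISA, cytotoxicity by SRB, PBMC viability and proliferation by Alamar Blue. Each well value was divided by the mean of 8 DMSO control wells on the same plate and log10 transformed; duplicate blinded samples were tested at 4 concentrations.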

Octafluoroadipic acid = compound: O=C(O)C(F)(F)C(F)(F)C(F)(F)C(F)(F)C(=O)O [Octafluoroadipic acid] (in DMSO)
Method: as §1

Perfluorononanoic acid = compound: O=C(O)C(F)(F)C(F)(F)C(F)(F)C(F)(F)C(F)(F)C(F)(F)C(F)(F)C(F)(F)F [Perfluorononanoic acid] (in DMSO)
Method: as §1

Perfluoroundecanoic acid = compound: O=C(O)C(F)(F)C(F)(F)C(F)(F)C(F)(F)C(F)(F)C(F)(F)C(F)(F)C(F)(F)C(F)(F)C(F)(F)F [Perfluoroundecanoic acid] (in DMSO); conditions: 6700 nM
Method: as §1

[2] = compound: O=C(O)C=C(C(F)(F)F)C(F)(F)F [3,3-Bis(trifluoromethyl)-2-propenoic acid] (in DMSO)
Method: as §1

[3] = compound: OCC(F)(F)OC(F)(F)C(F)(F)OC(F)(F)C(F)(F)OC(F)(F)CO [1H,1H,11H,11H-Perfluorotetraethylene glycol] (in DMSO)
Method: as §1

[4] = compound: O=C(O)C(F)(F)C(F)(F)C(F)(F)OC(F)(F)F [Perfluoro(4-methoxybutanoic) acid] (in DMSO)
Method: as §1

Row | Test System | level (log10) ([1]; 6700 nM) | level (log10) ([1]; 20000 nM) | level (log10) ([1]; 60000 nM) | level (log10) (Octafluoroadipic acid; 6700 nM) | level (log10) (Octafluoroadipic acid; 20000 nM) | level (log10) (Octafluoroadipic acid; 60000 nM) | level (log10) (Perfluorononanoic acid; 6700 nM) | level (log10) (Perfluorononanoic acid; 20000 nM) | level (log10) (Perfluoroundecanoic acid) | level (log10) ([2]; 6700 nM) | level (log10) ([2]; 20000 nM) | level (log10) ([2]; 60000 nM) | level (log10) ([3]; 6700 nM) | level (log10) ([3]; 20000 nM) | level (log10) ([3]; 60000 nM) | level (log10) ([4]; 6700 nM) | level (log10) ([4]; 20000 nM) | level (log10) ([4]; 60000 nM)
1 | 3C:CXCL9/MIG | -0.004 ± 0.0014 | 0.004 ± 0.013 | -0.0045 ± 0.0035 | -0.002 ± 0.0028 | -0.0095 ± 0.015 | 0.006 ± 0.0085 | -0.0085 ± 0.0064 | 0.0045 ± 0.0064 | 0.0025 ± 0.005 | -0.015 ± 0.017 | -0.004 ± 0.028 | 0.013 ± 0.025 | 0.0095 ± 0.022 | 0.0065 ± 0.026 | 0.012 ± 0.0028 | -0.012 ± 0.013 | -0.012 ± 0.017 | -0.001 ± 0.013
2 | BT:Secreted IgG | 0.032 ± 0.0099 | -0.014 ± 0.031 | -0.025 ± 0.014 | 0.0285 ± 0.033 | 0.028 ± 0.027 | 0.0435 ± 0.011 | 0.0275 ± 0.021 | 0.0335 ± 0.026 | 0.003 ± 0.011 | 0.0155 ± 0.005 | -0.0375 ± 0.052 | -0.597 ± 0.16 | -0.093 ± 0.0099 | -0.135 ± 0.0071 | -0.374 ± 0.055 | -0.0045 ± 0.03 | 0.026 ± 0.047 | -0.0125 ± 0.0064
3 | BT:sIL-2 | -0.023 ± 0.073 | 0.0195 ± 0.057 | 0.009 ± 0.011 | -0.006 ± 0.15 | -0.012 ± 0.021 | -0.0495 ± 0.061 | 0.0075 ± 0.039 | 0.0105 ± 0.011 | 0.03 ± 0.033 | -0.297 ± 0.042 | -0.529 ± 0.02 | -0.648 ± 0.072 | 0.0295 ± 0.12 | 0.0865 ± 0.1 | 0.005 ± 0.13 | -0.013 ± 0.0028 | -0.006 ± 0.052 | 0.029 ± 0.051
4 | BF4T:CXCL8/IL-8 | 0.0015 ± 0.0035 | -0.0105 ± 0.0078 | -0.0055 ± 0.0078 | 0.0435 ± 0.0021 | -0.0005 ± 0.021 | 0.013 ± 0.05 | 0.048 ± 0.0028 | 0.0165 ± 0.00071 | 0.0815 ± 0.026 | -0.0135 ± 0.022 | -0.022 ± 0.0099 | 0.0345 ± 0.05 | -0.0155 ± 0.026 | -0.0265 ± 0.026 | -0.0245 ± 0.03 | 0.04 ± 0.069 | 0.014 ± 0.086 | 0.0245 ± 0.028
5 | 4H:CD62P/P-selectin | -0.0315 ± 0.09 | -0.034 ± 0.099 | -0.015 ± 0.071 | -0.0075 ± 0.043 | 0.0065 ± 0.042 | -0.007 ± 0.059 | 0.015 ± 0.0099 | 0.0605 ± 0.011 | 0.064 ± 0.0028 | 0.005 ± 0.0042 | -0.0505 ± 0.022 | -0.164 ± 0.028 | -0.0065 ± 0.035 | -0.0155 ± 0.018 | -0.0055 ± 0.0078 | 0.0035 ± 0.0078 | 0.033 ± 0.068 | -0.005 ± 0.059
6 | BE3C:CXCL8/IL-8 | -0.0045 ± 0.022 | -0.06 ± 0.0014 | -0.134 ± 0.005 | 0.0325 ± 0.0092 | 0.0355 ± 0.021 | 0.058 ± 0.068 | -0.03 ± 0.0057 | -0.175 ± 0.0042 | -0.113 | -0.016 ± 0.0042 | -0.026 ± 0.0085 | -0.0075 ± 0.04 | -0.0165 ± 0.0035 | -0.071 ± 0.033 | -0.0405 ± 0.056 | 0.0325 ± 0.028 | 0.0325 ± 0.016 | 0.0655 ± 0.042
7 | 4H:CCL26/Eotaxin-3 | 0.0095 ± 0.06 | -0.0325 ± 0.015 | -0.075 ± 0.0042 | 0.022 ± 0.016 | 0.0185 ± 0.0092 | 0.016 ± 0.027 | -0.008 ± 0.0071 | -0.03 ± 0.018 | 0.016 ± 0.03 | -0.02 ± 0.044 | -0.042 ± 0.0042 | -0.121 ± 0.0064 | -0.0255 ± 0.0064 | -0.017 ± 0.044 | 0.0375 ± 0.028 | 0.018 ± 0.0085 | 0.0205 ± 0.013 | 0.0245 ± 0.023
8 | 3C:SRB | -0.017 ± 0.0057 | -0.019 ± 0.018 | -0.0705 ± 0.028 | -0.007 ± 0.016 | -0.0045 ± 0.011 | -0.016 ± 0.0028 | -0.002 ± 0.0042 | -0.003 | 0.0095 ± 0.015 | 0.0105 ± 0.019 | -0.005 ± 0.025 | -0.062 ± 0.03 | 0.003 ± 0.0071 | -0.0185 ± 0.013 | -0.079 ± 0.033 | -0.0175 ± 0.018 | -0.0255 ± 0.018 | -0.0195 ± 0.0064
9 | BF4T:IL-1alpha | 0.004 ± 0.016 | -0.01 ± 0.014 | 0.0065 ± 0.018 | -0.003 ± 0.0014 | -0.016 ± 0.0042 | 0.002 ± 0.0014 | -0.043 ± 0.0099 | -0.029 ± 0.025 | -0.014 ± 0.023 | -0.009 ± 0.0057 | -0.003 ± 0.0085 | -0.0065 ± 0.035 | 0.0095 ± 0.012 | -0.002 ± 0.025 | 0.003 ± 0.051 | 0.007 ± 0.013 | 0.008 ± 0.028 | -0.003 ± 0.023
10 | BE3C:CXCL11/I-TAC | 0.0385 ± 0.0021 | 0.016 ± 0.0071 | -0.0915 ± 0.015 | -0.0025 ± 0.0078 | 0.0085 ± 0.012 | 0.0085 ± 0.0078 | -0.01 ± 0.016 | -0.0315 ± 0.044 | -0.114 ± 0.047 | -0.0375 ± 0.0092 | -0.033 ± 0.023 | -0.019 ± 0.011 | -0.0135 ± 0.0021 | -0.03 ± 0.0028 | -0.092 ± 0.028 | 0.011 ± 0.018 | 0.008 ± 0.0085 | 0.0135 ± 0.0092
11 | 4H:CD106/VCAM-1 | -0.0065 ± 0.025 | -0.018 ± 0.0014 | -0.0375 ± 0.0021 | -0.003 ± 0.0028 | -0.007 ± 0.018 | -0.007 ± 0.017 | -0.0245 ± 0.032 | -0.029 ± 0.0071 | -0.03 ± 0.0057 | -0.12 ± 0.037 | -0.143 ± 0.017 | -0.25 ± 0.028 | 0.0345 ± 0.011 | -0.016 ± 0.011 | -0.078 ± 0.016 | -0.0105 ± 0.012 | -0.0075 ± 0.005 | -0.002 ± 0.018
12 | BE3C:CD54/ICAM-1 | 0.0215 ± 0.018 | 0.013 ± 0.0042 | -0.02 ± 0.014 | -0.0085 ± 0.0078 | -0.0045 ± 0.013 | 0.01 ± 0.031 | -0.004 ± 0.034 | 0.0095 ± 0.0035 | 0.004 ± 0.016 | -0.004 ± 0.017 | 0.0025 ± 0.0021 | 0.031 ± 0.04 | -0.004 ± 0.011 | 0.012 ± 0.0099 | -0.048 ± 0.0099 | -0.0015 ± 0.013 | -0.007 ± 0.0085 | -0.007 ± 0.017
13 | 3C:HLA-DR | -0.0155 ± 0.012 | -0.011 ± 0.0071 | -0.011 ± 0.0085 | -0.007 ± 0.0099 | -0.004 ± 0.021 | 0.0035 ± 0.0078 | -0.024 ± 0.033 | 0.017 ± 0.021 | -0.023 ± 0.0014 | -0.012 ± 0.014 | -0.0415 ± 0.039 | -0.189 ± 0.031 | -0.0055 ± 0.049 | -0.001 ± 0.023 | -0.047 ± 0.028 | 0.0105 ± 0.013 | 0.0055 ± 0.023 | 0.0015 ± 0.016
14 | BT:sIL-17F | -0.0295 ± 0.091 | 0.053 ± 0.0071 | 0.018 | -0.027 ± 0.0028 | -0.009 ± 0.078 | 0.0275 ± 0.076 | -0.0305 ± 0.0064 | 0.002 ± 0.15 | -0.0225 ± 0.056 | -0.258 ± 0.031 | -0.426 ± 0.16 | -0.672 ± 0.021 | -0.0185 ± 0.015 | -0.176 | -0.396 ± 0.044 | -0.0085 ± 0.059 | 0.07 ± 0.017 | -0.037 ± 0.073
15 | BF4T:CD106/VCAM-1 | 0.0035 ± 0.035 | -0.0285 ± 0.03 | -0.041 ± 0.0028 | -0.01 ± 0.0014 | -0.0095 ± 0.016 | 0.002 ± 0.048 | -0.084 ± 0.086 | -0.129 ± 0.035 | -0.032 ± 0.041 | -0.0755 ± 0.0064 | -0.0945 ± 0.005 | -0.047 ± 0.067 | 0.0765 ± 0.0092 | -0.018 ± 0.037 | -0.0835 ± 0.043 | -0.005 ± 0.023 | -0.012 ± 0.0071 | -0.0015 ± 0.04
16 | LPS:CXCL8/IL-8 | 0.01 ± 0.11 | 0.0485 ± 0.012 | -0.053 ± 0.17 | 0.0015 ± 0.032 | -0.0035 ± 0.054 | 0.0415 ± 0.1 | 0.024 ± 0.013 | 0.0355 ± 0.0092 | -0.04 ± 0.035 | -0.052 ± 0.0099 | -0.047 ± 0.037 | -0.007 ± 0.069 | -0.0025 ± 0.00071 | -0.01 ± 0.0057 | -0.02 ± 0.011 | -0.0075 ± 0.05 | 0.0075 ± 0.049 | 0.0545 ± 0.005
